Assay results published in US20130156708A1, “PHENOL DERIVATIVES AS ANTIMICROBIAL AGENTS” (Symrise AG, priority 2011, published 2013).
Values after ≈ are worked out from the molar mass of the structure shown.

Columns and labels:
[1] = Taste test in alcohol free mouth wash formulation; settings: compound 0.1%, peppermint Optamint Flavor 0.15%, versus sample without compound
Excerpt: The compounds of formulae (IIa) and (IIIa) were further tested in oral care formulations. In particular, an alcohol free mouth wash formulation in combination with a standard peppermint flavor (Optamint® Flavor, dosage 0.15%) plus compound of formula (IIa) or (IIIa), respectively, (dosage 0.1%) was compared with a sample without any compound of formula (I), but being otherwise identically composed. The taste impressions of the samples including the respective compound of formula (IIa) or (IIIa) are described as follows: […]

E. coli [2] = assay: Fast time-kill test, inactivation time for 99.9% kill, E. coli; type: cell-based; settings: Escherichia coli; 0.1% concentration; averages of four independent experiments
Procedure: (§1) This protocol gives an exact description on how to perform a fast time-kill experiment. Fast time-kill experiments serve to determine the antimicrobial kill activity of a specific substance or substance mixture against a particular microorganism or a mixture of microorganisms. To kill (synonymous: to inactivate) a microorganism means that after the treatment, the microorganism has permanently lost its capacity to grow or to replicate.
(§2) Microorganisms are grown in suitable growth medium allowing for exponential growth. For E. coli, Salmonella spp., S. aureus, P. aeruginosa, and for C. albicans tryptic soy broth medium is used. One hundred ml Erlenmeyer flasks containing 20 ml growth medium are inoculated with 10^5 to 10^8 microbial cells/ml and incubated overnight under continuous shaking (120 rpm) at a temperature allowing for exponential growth, usually between 20 and 37° C. The temperature is chosen in such a way to ensure the exponential growth for the used microorganisms, for E. coli, Salmonella spp., S. aureus, P. aeruginosa, and for C. albicans 37° C. is used.
(§3) After reaching the stationary growth phase, 100 μl of this culture are transferred in a second Erlenmeyer flask containing 20 ml of the same growth medium. This culture is shaken for further (preferably to up to 7 hours) under identical conditions as described above. Subsequently, this culture is diluted in the same growth medium to 10^5 to 10^9, preferably to 10^6 to 10^8 cells/ml. With this suspension of microorganism (named “microorganism working suspension”) the time-kill test is performed.
(§4) Test substances are dissolved in DMSO, EtOH and/or H2O, preferably in H2O, to prepare a 100× concentrated stock solution. […]
(§5) Samples are taken from reaction tubes after defined time intervals (preferably 1, 2 and 5 min) to determine the number of surviving microorganisms. […] The number of surviving microorganisms is determined by aspiring 100 μl volumes from reaction tubes and mixing it immediately with 900 μl growth medium to prepare a 10^−1 dilution. […]

S. aureus [3] = assay: Fast time-kill test, inactivation time for 99.9% kill, S. aureus; type: cell-based; settings: Staphylococcus aureus; 0.1% concentration; averages of four independent experiments
Procedure: as §1, §2, §3, §4, §5

C. albicans [4] = assay: Fast time-kill test, inactivation time for 99.9% kill, C. albicans; type: cell-based, Candida albicans; settings: Candiada albicans; 0.1% concentration; averages of four independent experiments
Procedure: as §1, §2, §3, §4, §5

E. coli [5] = assay: Minimum inhibitory concentration, E. coli; type: cell-based, Escherichia coli; settings: for MIC: Escherichia coli
Excerpt: (§6) Assessment of minimum inhibitory concentrations of thymol and 4-prenylphenol against versus microorganisms relevant for home and personal care:
(§7) The results of comparative assessment of minimum inhibitor concentration for both thymol and 4-prenylphenol are listed in Table 2.

S. aureus [6] = assay: Minimum inhibitory concentration, S. aureus; type: cell-based, Staphylococcus aureus; settings: for MIC: Staphylococcus aureus
Excerpt: as §6, §7

C. albicans [7] = assay: Minimum inhibitory concentration, C. albicans; type: cell-based, Candida albicans; settings: for MIC: Candida albicans
Excerpt: as §6, §7

Aspergillus niger = assay: Minimum inhibitory concentration, A. niger; type: cell-based; settings: for MIC: Aspergillus niger
[8] = tested on: microorganisms relevant for home and personal care; assay: Minimum inhibitory concentration, further microorganisms of Table 2; type: cell-based
Excerpt: as §6, §7

E. coli [9] = assay: Synergistic activity (Kull) in fast time-kill experiments, E. coli; type: cell-based, Escherichia coli
Procedure: (§8) This protocol gives an exact description on how to perform a fast time-kill experiment. Fast time-kill experiments serve to determine the antimicrobial kill activity of a specific substance or substance mixture against a particular microorganism or a mixture of microorganisms.
as §2, §3
(§9) Test substances are dissolved in DMSO, EtOH and/or H2O, preferably in H2O, to prepare a 100× concentrated stock solution. In case the test substance is not completely soluble in H2O, the solvents are chosen in to ensure a complete dissolution of the test substance, the chosen concentration of DMSO and EtOH being as low as possible. For solid substances, complete dissolution has to be ensured. […] Preferably, the concentrations of the test substances in the 100× concentrated stock solution are between 1 and 100%, corresponding to 0.01 to 1% in the final test. The amount of the 100× concentrated stock solution in the final test should not exceed 1% in order to limit the concentration of DMSO or EtOH to 1% in the final test.
(§10) Fast time-kill tests are performed in 1000 μl volumes in 1.5 ml plastic reaction tubes (Eppendorf). The test is started by mixing (in this particular order) 100 μl microorganism working suspension with 890 μl tryptic soy broth growth medium containing 0.1% Tween® 80 and 10 μl 100× concentrated stock solution of test substances. Controls are included that are prepared as described above, but using 100× stock solution without test substances. During the test, tubes are incubated at the same temperature as the microorganisms were grown, usually 20 to 37° C. (for E. coli, Salmonella spp., S. aureus, P. aeruginosa, and for C. albicans 37° C. is used) in an Eppendorf Thermomixer and are vigorously shaken at 1400 rpm.
(§11) Samples are taken from reaction tubes after defined time intervals (preferably 1, 2 and 5 min) to determine the number of surviving microorganisms. At time 0 (immediately after starting the test) samples are taken from control tubes to determine the initial number of microorganisms in the test. The number of surviving microorganisms is determined by aspiring 100 μl volumes from reaction tubes and mixing it immediately with 900 μl growth medium to prepare a 10^−1 dilution. Further dilutions are prepared in this way from 10^−2 to 10^−4. One hundred μl volumes of the different dilutions are plated on tryptic soy broth agar plates and incubated for up to 48 h at the same temperature as the microorganisms were grown, usually 20 to 37° C. (for E. coli, Salmonella spp., S. aureus, P. aeruginosa, and for C. albicans 37° C. is used). Colonies grown on plates are counted and the numbers of surviving microorganisms are calculated for the different treatments and time points. For substances with low minimum inhibitory concentrations (MIC), sufficient dilution below the concentration of the MIC value has to be ensured.

S. aureus [10] = assay: Synergistic activity (Kull) in fast time-kill experiments, S. aureus; type: cell-based, Staphylococcus aureus
Procedure: as §8, §2, §3, §9, §10, §11

[11] = Taste test in silica toothpaste formulation; settings: compound 0.1%, spearmint Optamint Flavor 1%, versus sample without compound
Excerpt: A silica toothpaste formulation in combination with a standard spearmint flavour (Optamint® Flavor, dosage 1%) plus the respective compound of formula (IIa) or (IIb) dosage 0.1% was compared to a sample without such compound of formula (I). The taste impressions of the sample including the compound of formula (IIa) or (IIb), respectively, are described as follows: […]

[12] = tested on: E. coli, S. aureus and C. albicans; assay: Fast time-kill test, statements of the text over all investigated microorganisms; type: cell-based; settings: 0.1% concentration, span over E. coli, averages of four independent experiments
Procedure: as §1
as §2, with “The temperature is chosen in such a way to ensure the exponential growth for the used microorganisms, for E. coli, Salmonella spp., S. aureus, P. aeruginosa, and for C. albicans 37° C. is used.” left out
as §5

SMILES | numbing/tingling feeling on the tongue [1] | Inactivation time for 99.9% kill (E. coli [2]) | Inactivation time for 99.9% kill (S. aureus [3]) | Inactivation time for 99.9% kill (C. albicans [4]) | MIC (E. coli [5]) | MIC (S. aureus [6]) | MIC (C. albicans [7]) | MIC (Aspergillus niger) | MIC ([8]; Corynebacterium xerosis) | MIC ([8]; Fusobacterium nucleatum) | MIC ([8]; Malassezia furfur) | MIC ([8]; Porphyromonas gingivalis) | MIC ([8]; Pseudomonas aeruginosa) | MIC ([8]; Salmonalla enteritidis) | MIC ([8]; Staphylococcus epidermidis) | MIC ([8]; Streptococcus mutans) | numbing/tingling feeling on the tongue [11] | also measured
CC(C)=CCc1ccccc1O [IIIa, 2-(3-Methylbut-2-enyl)phenol] | clearly leaves a numbing/tingling feeling on the tongue | – | – | – | – | – | – | – | – | – | – | – | – | – | – | – | – | –
CC(C)=CCc1ccc(O)cc1 [IIa, 4-(3-Methylbut-2-enyl)phenol] | clearly leaves a numbing/tingling feeling on the tongue | 1.3 min | 1.2 min | 1.4 min | 125 µg/mL (≈ 771 µM) | 125 µg/mL (≈ 771 µM) | 125 µg/mL (≈ 771 µM) | 64 µg/mL (≈ 394 µM) | 125 µg/mL (≈ 771 µM) | 64 µg/mL (≈ 394 µM) | 1000 µg/mL (≈ 6160 µM) | 64 µg/mL (≈ 394 µM) | > 1000 µg/mL | 125 µg/mL (≈ 771 µM) | 125 µg/mL (≈ 771 µM) | 125 µg/mL (≈ 771 µM) | clearly leaves a numbing/tingling feeling on the tongue | minimum inhibitory concentration compared with Thymol (E. coli [5]; E. coli): equal to the one of Thymol; minimum inhibitory concentration compared with Thymol (S. aureus [6]; S. aureus): equal to the one of Thymol; minimum inhibitory concentration compared with Thymol (C. albicans [7]; C. albicans): a factor of two lower; antimicrobial activity against the mould A. niger (Aspergillus niger): strong antimicrobial activity; Inactivation rate k (E. coli [9]; 4-Prenylphenol 250 ppm): 0.94 min⁻¹; Inactivation time T99.9% (E. coli [9]; 4-Prenylphenol 250 ppm): 7.4 min; Reduction of surviving microorganisms (E. coli [9]; 4-Prenylphenol 250 ppm): 0.39; Inactivation rate k (S. aureus [10]; 4-Prenylphenol 400 ppm): 1.2 min⁻¹; Inactivation time T99.9% (S. aureus [10]; 4-Prenylphenol 400 ppm): 5.6 min; Reduction of surviving microorganisms (S. aureus [10]; 4-Prenylphenol 400 ppm): 0.29
C=C(C)CCc1ccc(O)cc1 [IIb, 4-(3-Methylbut-3-enyl)phenol] | – | – | – | – | – | – | – | – | – | – | – | – | – | – | – | – | clearly leaves a numbing/tingling feeling on the tongue | –
COC(=O)c1ccc(O)cc1 [Methylparaben, reference compound] | – | – | – | – | – | – | – | – | – | – | – | – | – | – | – | – | – | Inactivation rate k (E. coli [9]; Methylparaben 2500 ppm): 0.09 min⁻¹; Inactivation time T99.9% (E. coli [9]; Methylparaben 2500 ppm): 89.1 min; Reduction of surviving microorganisms (E. coli [9]; Methylparaben 2500 ppm): 0.91; Inactivation rate k (S. aureus [10]; Methylparaben 5000 ppm): 0.40 min⁻¹; Inactivation time T99.9% (S. aureus [10]; Methylparaben 5000 ppm): 18.1 min; Reduction of surviving microorganisms (S. aureus [10]; Methylparaben 5000 ppm): 0.67
Cc1ccc(C(C)C)c(O)c1 [Thymol, reference compound] | – | 4.1 min | 4.9 min | 8.7 min | 125 µg/mL (≈ 832 µM) | 125 µg/mL (≈ 832 µM) | 250 µg/mL (≈ 1660 µM) | 1000 µg/mL (≈ 6660 µM) | 125 µg/mL (≈ 832 µM) | 125 µg/mL (≈ 832 µM) | 1000 µg/mL (≈ 6660 µM) | 125 µg/mL (≈ 832 µM) | 1000 µg/mL (≈ 6660 µM) | 250 µg/mL (≈ 1660 µM) | 250 µg/mL (≈ 1660 µM) | 250 µg/mL (≈ 1660 µM) | – | –
Oc1cc(Cl)ccc1Oc1ccc(Cl)cc1Cl [Triclosan] | – | >100 min | >100 min | >100 min | – | – | – | – | – | – | – | – | – | – | – | – | – | Inactivation time for a 99.9% kill [12]: > 100 min
